According to US10285983B2, “3-(1H-pyrrolo[2,3-B]pyridin-2-yl)-1H-pyrazolo[3,4-B] pyridines and therapeutic uses thereof” (Samumed, LLC, priority 2015, dated 2019):

What was measured:
Type in all cases: cell-based
[1] = system: Wnt activity (Sp5-Luc reporter, SW480 colon carcinoma cells); assay: Wnt activity screening assay, Sp5-Luc reporter gene in SW480 cells; conditions: Homo sapiens; for inhibition at 10 µM: given for EC50 >10 μM, read-out: percent inhibition at 10 μM; for EC50: overnight incubation
Excerpt: The screening assay for Wnt activity is described as follows. Reporter cell lines can be generated by stably transducing cancer cell lines (e.g., colon cancer) or primary cells (e.g., IEC-6 intestinal cells) with a lentiviral construct that includes a Wnt-responsive promoter driving expression of the firefly luciferase gene.
SW480 colon carcinoma cells were transduced with a lentiviral vector expressing luciferase with a human Sp5 promoter consisting of a sequence of eight TCF/LEF binding sites. SW480 cells stably expressing the Sp5-Luc reporter gene and a hygromycin resistance gene were selected by treatment with 150 μg/mL of hygromycin for 7 days. These stably transduced SW480 cells were expanded in cell culture and used for all further screening activities. Each compound was dissolved in DMSO as a 10 mM stock and used to prepare compound source plates. Serial dilution (1:3, 10-point dose-response curves starting from 10 μM) and compound transfer was performed using the ECHO 550 (Labcyte, Sunnyvale, Calif.) into 384-well white solid bottom assay plates (Greiner Bio-One) with appropriate DMSO backfill for a final DMSO concentration of 0.1%. For Sp5-Luc reporter gene assays, the cells were plated at 4,000 cells/well in 384-well plates with medium containing 1% fetal bovine serum and incubated overnight at 37° C. and 5% CO2. Following incubation, 20 μl of BrightGlo luminescence reagent (Promega) was added to each well of the 384-well assay plates. The plates were placed on an orbital shaker for 2 min and then luminescence was quantified using the Envision (Perkin Elmer) plate reader. Readings were normalized to DMSO only treated cells, and normalized activities were utilized for EC50 calculations using the dose-response log (inhibitor) vs. response—variable slope (four parameters) nonlinear regression feature available in GraphPad Prism 5.0 (or Dotmatics). For EC50 of >10 μM, the percent inhibition at 10 μM is provided.

SW480 colon cancer cells = assay: Cell viability assay (CellTiter-Blue); conditions: Homo sapiens, 96 h, four days; for inhibition at 10 µM: given for EC50 >10 μM, read-out: percent inhibition at 10 μM
Description: Representative compounds were screened using the following assay procedure to assess the effect on cell viability as described below.
Each compound was dissolved in DMSO as a 10 mM stock and used to prepare compound source plates. Serial dilution (1:3, 8-point dose-response curves from 10 μM to 0.0045 μM) and compound transfer was performed using the ECHO 550 (Labcyte, Sunnyvale, Calif.) into 96-well clear bottom, black-walled plates (Corning-Costar).
Approximately 2×10^3 SW480 colon cancer cells were seeded into each well and allowed to incubate in the presence or absence of compound for four days at 37° C./5% CO2. Eight replicates of DMSO-treated cells served as controls and cells treated with compound were performed in duplicate.
After incubation, 20 μL of CellTiter-Blue (Promega) was added to each well allowed to incubate for approximately 3 hours. This reagent was a buffered solution which contains resazurin, metabolically active cells were able to reduce rezarurin (blue) into resorufin (pink) which was highly fluorescent. This measured fluorescence was used as a readout for cell viability.
After incubation, the plates were read at Ex 560 nm Em 590 nm (Cytation 3, BioTek). Dose-response curves were generated and EC50 concentration values were calculated using non-linear regression curve fit in the GraphPad Prism (San Diego, Calif.) or Dotmatics' Studies Software (Bishops Stortford, UK). For EC50 of >10 μM, the percent inhibition at 10 μM is provided.

[2] = system: IL-6 (THP-1 human monocyte cell line); assay: IL-6 inhibition in LPS-stimulated THP-1 cells (HTRF); conditions: LPS 500 ng/mL; for EC50: 22 hours, IL6 HTRF; for inhibition at 10 µM: given for EC50 >10 μM, read-out: percent inhibition at 10 μM
Description: Human monocyte cell line (THP-1 cells; Catalog # TIB-202, ATCC, Manassas, Va.) were cultured in Roswell Park Memorial Institute (RPMI) 1640 Medium (Catalog #21870-100, Buffalo, N.Y.) with 1% L-glutamine, 1% HEPES, 1% Sodium Pyruvate, 2% Sodium Bicarbonate supplemented with 100 units/mL penicillin, 50 μg/mL streptomycin, 2-mercaptoethanol (0.05 mM) [basal medium] and 10% fetal bovine serum (Catalog #16140089, Life Technologies, Carlsbad, Calif.) at 37° C. and 5% CO2.
THP-1 cells were cultured in basal media with 1% FBS for 24 hours before the start of the assay. Each compound was dissolved in DMSO as a 10 mM stock and used to prepare compound source plates. Serial dilution (1:3, 10-point dose-response curves starting from […]) and compound transfer was performed using the ECHO 550 (Labcyte, Sunnyvale, Calif.) into 384-well white low volume assay plates (Greiner Bio-One) with appropriate DMSO backfill for a final DMSO concentration of 0.1%. THP-1 cells were plated at 5000 cells/well in the 384-well plates and incubated at 37° C. for 2 h. 500 ng/mL of LPS was added after 2 hours and cells were incubated for another 22 hours at 37° C. Plates were spun in a centrifuge for 1 minute at 10,000 rpm and a mixture of anti-IL6 XL665, and anti-IL6 Cryptate diluted in reconstitution buffer (Cisbio Inc.) was added to each well. Following incubation for 3 hrs at room temperature, Homogeneous Time-Resolved Fluorescence (HTRF) was measured using the Envision (Perkin Elmer) at 665 nm and […]. The ratio of fluorescence at 665 nm to 620 nm was used as a readout for IL6 quantification. All samples were processed in duplicate. Readings were normalized to DMSO treated cells and normalized activities were utilized for EC50 calculations using the dose-response log (inhibitor) vs. response—variable slope (four parameters) nonlinear regression feature available in GraphPad Prism 5.0 (or Dotmatics). For EC50 of >10 μM, the percent inhibition at 10 μM is provided.

EC50 [1] [µM]	EC50 (SW480 colon cancer cells) [µM]	EC50 [2] [µM]	Structure (SMILES)	inhibition at 10 µM [1] [%]	inhibition at 10 µM (SW480 colon cancer cells) [%]	inhibition at 10 µM [2] [%]
> 10	> 10	> 10	CCC(=O)Nc1cncc(-c2cnc3[nH]nc(-c4cc5c(-c6cccc(F)c6)ccnc5[nH]4)c3c2)c1 [Compound 1, N-(5-(3-(4-(3-Fluorophenyl)-1H-pyrrolo[2,3-b]pyridin-2-yl)-1H-pyrazolo [3,4-b]pyridin-5-yl)pyridin-3-yl)propionamide]	46.1	9.8	23.8
> 10	0.643	> 10	O=C(Nc1cncc(-c2cnc3[nH]nc(-c4cc5c(-c6cccc(F)c6)ccnc5[nH]4)c3c2)c1)c1ccccc1 [Compound 11, N-(5-(3-(4-(3-Fluorophenyl)-1H-pyrrolo[2,3-b]pyridin-2-yl)-1H-pyrazolo [3,4-b]pyridin-5-yl)pyridin-3-yl)benzamide]	10		14.1
> 10	> 10	> 10	Fc1cccc(-c2ccnc3[nH]c(-c4n[nH]c5ncc(-c6ccccn6)cc45)cc23)c1 [Compound 28, 3-(4-(3-Fluorophenyl)-1H-pyrrolo[2,3-b]pyridin-2-yl)-5-(pyridin-2-yl)-1H-pyrazolo[3,4-b]pyridine]	15	16.3	49.5
> 10	> 10	> 10	CC(C)CC(=O)Nc1cncc(-c2cnc3[nH]nc(-c4cc5c(-c6ccc(F)cc6)ccnc5[nH]4)c3c2)c1 [Compound 30, N-(5-(3-(4-(4-Fluorophenyl)-1H-pyrrolo[2,3-b]pyridin-2-yl)-1H-pyrazolo [3,4-b]pyridin-5-yl)pyridin-3-yl)-3-methylbutanamide]	11.9	18.5	0
> 10	> 10	> 10	Fc1ccc(-c2ccnc3[nH]c(-c4n[nH]c5ncc(-c6cncc(CN7CCCC7)c6)cc45)cc23)cc1 [Compound 42, 3-(4-(4-Fluorophenyl)-1H-pyrrolo[2,3-b]pyridin-2-yl)-5-(5-(pyrrolidin-1-ylmethyl)pyridin-3-yl)-1H-pyrazolo[3,4-b]pyridine]	26	24.8	36.8
> 10	> 10	> 10	Fc1ccc(-c2ccnc3[nH]c(-c4n[nH]c5ncc(-c6cncc(CN7CCC(F)(F)C7)c6)cc45)cc23)cc1 [Compound 54, 5-(5-((3,3-Difluoropyrrolidin-1-yl)methyl)pyridin-3-yl)-3-(4-(4-fluorophenyl)-1H-pyrrolo[2,3-b]pyridin-2-yl)-1H-pyrazolo[3,4-b]pyridine]	8.7	6.9	32.3

The next lines start with the compound.

Structure (SMILES)	EC50 [1] [µM]	EC50 (SW480 colon cancer cells) [µM]	EC50 [2] [µM]	inhibition at 10 µM [1] [%]	inhibition at 10 µM (SW480 colon cancer cells) [%]	inhibition at 10 µM [2] [%]
Fc1cccc(-c2ccnc3[nH]c(-c4n[nH]c5ncc(-c6cccnc6)cc45)cc23)c1 [Compound 4, 3-(4-(3-Fluorophenyl)-1H-pyrrolo[2,3-b]pyridin-2-yl)-5-(pyridin-3-yl)-1H-pyrazolo[3,4-b]pyridine]	> 10	> 10	> 10	7.6	17.5	22.6
CN(C)Cc1cncc(-c2cnc3[nH]nc(-c4cc5c(-c6cccc(F)c6)ccnc5[nH]4)c3c2)c1 [Compound 13, 1-(5-(3-(4-(3-Fluorophenyl)-1H-pyrrolo[2,3-b]pyridin-2-yl)-1H-pyrazolo [3,4-b]pyridin-5-yl)pyridin-3-yl)-N,N-dimethylmethanamine]	> 10	> 10	> 10	22.6	11.6	27.5
Fc1cccc(-c2ccnc3[nH]c(-c4n[nH]c5ncc(-c6ccncc6)cc45)cc23)c1 [Compound 18, 3-(4-(3-Fluorophenyl)-1H-pyrrolo[2,3-b]pyridin-2-yl)-5-(pyridin-4-yl)-1H-pyrazolo[3,4-b]pyridine]	> 10	> 10	> 10	11.7	23.2	37.2
O=C(Nc1cncc(-c2cnc3[nH]nc(-c4cc5c(-c6cccc(F)c6)ccnc5[nH]4)c3c2)c1)C1CC1 [Compound 20, N-(5-(3-(4-(3-Fluorophenyl)-1H-pyrrolo[2,3-b]pyridin-2-yl)-1H-pyrazolo [3,4-b]pyridin-5-yl)pyridin-3-yl)cyclopropanecarboxamide]	> 10	> 10	2.13	57.3	51.4	
Cc1ccncc1-c1cnc2[nH]nc(-c3cc4c(-c5ccc(F)cc5)ccnc4[nH]3)c2c1 [Compound 33, 3-(4-(4-Fluorophenyl)-1H-pyrrolo[2,3-b]pyridin-2-yl)-5-(4-methylpyridin-3-yl)-1H-pyrazolo[3,4-b]pyridine]	> 10	> 10	> 10	2.7	25	27.7
Fc1ccc(-c2ccnc3[nH]c(-c4n[nH]c5ncc(-c6cncc(CN7CCCCC7)c6)cc45)cc23)cc1 [Compound 43, 3-(4-(4-Fluorophenyl)-1H-pyrrolo[2,3-b]pyridin-2-yl)-5-(5-(piperidin-1-ylmethyl)pyridin-3-yl)-1H-pyrazolo[3,4-b]pyridine]	> 10	> 10	> 10	2.8	6.9	36.7
O=C(Nc1cncc(-c2cnc3[nH]nc(-c4cc5c(-c6ccc(F)cc6)ccnc5[nH]4)c3c2)c1)C1CCCCC1 [Compound 51, N-(5-(3-(4-(4-Fluorophenyl)-1H-pyrrolo[2,3-b]pyridin-2-yl)-1H-pyrazolo [3,4-b]pyridin-5-yl)pyridin-3-yl)cyclohexanecarboxamide]	> 10	> 10	> 10	14.2	17.7	19.4
